Experimental data: patent US9862690B2, “Treatment of pulmonary and other conditions” (University of Pittsburgh—of the Commonwealth System of …, priority 2013, dated 2018)

What was measured:
[1] = tested on: chronic hypoxia-induced pulmonary hypertension in mice; assay: Chronic hypoxia-induced pulmonary hypertension model; assay type: in vivo; settings: 25 mg/kg nebulized during last 10 days of 3 weeks hypoxia
Experimental: CH-induced pulmonary hypertension was produced in mice by exposing them to chronic hypoxia (CH; FIO2 10%) or room air (N; control) for 3 weeks. During the last 10 days of exposure, PB141 (25 mg/kg) or vehicle (saline) was nebulized and delivered to cage air via a micropump nebulizer. Twenty-four hours following the last nebulization mice were anesthetized and the right internal jugular vein of each mouse was surgically exposed and cannulated with a pressure transducer that was advanced to record right ventricular pressure, then advanced further to measure pulmonary arterial pressure: (top left) mean pulmonary arterial pressure; (top right) right ventricular systolic pressure (RVSP); (bottom left) […]; (bottom right) right ventricular hypertrophy. Data are representative of one of two independent experiments with n=4-6 mice per group.
CH-induced pulmonary hypertension was produced in mice by exposing them to CH (FIO2 10%) or room air for 3 weeks. During the last 10 days of exposure, PB141 (25 mg/kg) or vehicle (saline) was nebulized and delivered to cage air via a micropump nebulizer. Twenty-four hours following the last nebulization lung samples were obtained. Graphs show medial wall thickness of a-SMA-positive acinar blood vessels and percent of non-muscularized, partially muscularized, and fully muscularized small vessels. Data are representative of one of two independent experiments with n=4-6 mice per group.
Pulmonary hypertension was induced in mice by exposing them to chronic hypoxia (FiO2 10%) for 3 weeks. Control mice breathed room air during the last 10 days of exposure, PB141 (25 mg/kg) or vehicle (saline) was nebulized into the cage air for 30 min via a nebulizer.
Twenty-four hours following the last PB141 administration, mice were anesthetized, and the right internal jugular vein of each mouse was surgically exposed and cannulated with a pressure transducer that was advanced to record right ventricular systolic pressure (RVSP), which is elevated in pulmonary hypertension. […] The heart was then excised and the right ventricle was separated from the left ventricle (including the septum). Each ventricle was weighted separately.
Twenty-four hours following the last PB141 administration, lung samples were obtained. Immunostaining for α-SMA, a key marker in pulmonary hypertension, was performed in paraffin sections of lung and the sections were examined microscopically. […] All these measures of vascular wall remodeling in small pulmonary vessels, the pathophysiology underlying pulmonary hypertension, were reduced by PB141 treatment (FIG. 20).

[2] = tested on: LPS-induced acute lung injury in mice; assay: LPS-induced acute lung injury model; assay type: in vivo; settings: 25 mg/kg nebulized 30 min after LPS
Experimental: Induction of ALI by intratracheal injection of LPS (50 μg) was followed 30 min later by nebulization of PB141 (25 mg/kg) or vehicle (saline) and delivery to cage air via a micropump nebulizer. After a further 5.5 h, BAL fluid, plasma, and lung samples were obtained. (A) Total cell and (B) neutrophil number in BAL fluid; myeloperoxidase activity in (C) lung tissue and (D) BAL fluid; (E) microscopic examination following staining of BAL fluid; (F) H2O2 production; (G) nitrate concentration, and (H) malonyldialdehyde/protein ratio in lung. Plasma levels of (I) MIP-2, (J) IL-6, (K) TNF-α, and (L) KC. Data are representative of one of two independent experiments with n=5-8 mice per group; *** p<0.001.
Induction of ALI by intratracheal injection of LPS (50 μg) was followed 30 min later by nebulization of PB141 (25 mg/kg) or vehicle (saline) and delivery to cage air via a micropump nebulizer. After a further 5.5 h, BAL fluid and lung samples were obtained. (A) Protein concentration in BAL fluid. (B) Ratio of lung wet:dry weight. (C) Histological examination of the lung following H&E staining. Data are representative of one of two independent experiments with n=5-8 mice per group; *** p<0.001.
Induction of ALI by intratracheal injection of LPS (50 μg) was followed 30 min later by nebulization of PB141 (25 mg/kg) or vehicle (saline) and delivery to cage air via a micropump nebulizer. After another 5.5 h lungs were excised and DNA-binding activity of the transcription factor Nrf2 was determined. Data is representative of one of two independent experiments with n=4-6 mice per group; *** p<0.001.
Acute lung injury was induced by intratracheal injection of endotoxin (lipopolysaccharide; LPS) prepared from Escherichia coli 0111:B6 (Sigma-Aldrich; St. Louis, Mo.) into anesthetized mice. In other experiments, systemic sepsis was induced by intraperitoneal injection of endotoxin. Thirty minutes later PB141 (25 mg/kg) or vehicle (saline) was delivered to mice for 30 minutes via a micropump nebulizer (Buxco Research Systems, Wilmington, N.C.) fitted at the chamber inlet. Extent of lung injury after 5.5 h and systemic sepsis after 12 h were assessed by measuring lung tissue myeloperoxidase activity, polymorphonuclear neutrophil (PMN) count in bronchoalveolar lavage fluid, lung vascular permeability, pulmonary edema, and cytokine generation. Lung histology sections were assessed microscopically for evidence of inflammation and injury following hematoxylin and eosin (H&E) staining.

In the case of `CC(=O)N[C@@H](CSC(CC(=O)CC(SC[C@H](NC(C)=O)C(=O)O)c1cnccn1)c1cnccn1)C(=O)O` (stereo partly shown) [PB141], the “Increase in ratio of right ventricular weight to left ventricle plus septum” value [1] is reported as “significantly reduced”, the “Increase in right ventricular systolic pressure (RVSP)” value [1] is reported as “significantly smaller” and the “Measures of vascular wall remodeling (α-SMA-positive vessels, muscularization, median wall thickness)” value [1] is reported as “reduced”. The Pulmonary arterial pressure [1] was “significantly smaller”, the Pulmonary vascular resistance [1] was “significantly smaller” and the “Cytokine generation (plasma MIP-2, IL-6, TNF-α, KC)” value ([2]; 5.5 h) was “reduced”. The “Edema (lung wet:dry weight)” value ([2]; 5.5 h) was “reduced”, the “Lung Nrf2 DNA-binding activity after LPS” value ([2]; 5.5 h) was “reverses the LPS-induced decrease” and the Lung myeloperoxidase activity ([2]; 5.5 h) was “decreased”. For the same compound, the “Oxidant stress (H2O2, nitrate, malonyldialdehyde)” value ([2]; 5.5 h) was “reduced”, the “PMN count in BAL fluid” value ([2]; 5.5 h) was “decreased” and the “PMN infiltration into the alveolar space” value ([2]; 5.5 h) was “effectively prevented”. For the same compound, the “Lung injury seen histologically” value ([2]; H&E) was “Decreased lung injury”.
